Source: ChEMBL document CHEMBL1201862, “PubChem BioAssay data set” (2004)
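Following 48 hours of exposure in 96-well plates, responses at five concentrations were used to interpolate endpoints linearly. GI50 marks 50% less growth.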 Active and inactive are the calls of the source. Cut-off read from the data, not from the text of the source: active = GI50 up to about 1.1 µM and inactive = higher.

Tests used:
Experiment in all cases: NCI-60 cell line screen, 48 h
SK-MEL-2 = tested on: SK-MEL-2
SF-268 = tested on: SF-268
HCT-116 = tested on: HCT-116
SK-MEL-28 = tested on: SK-MEL-28
COLO 205 = tested on: COLO 205
SK-OV-3 = tested on: SK-OV-3
OVCAR-3 = tested on: OVCAR-3
SN12C = tested on: SN12C
SF-539 = tested on: SF-539
CCRF-CEM = tested on: CCRF-CEM
SK-MEL-5 = tested on: SK-MEL-5
IGROV-1 = tested on: IGROV-1
HOP-62 = tested on: HOP-62
NCI-H23 = tested on: NCI-H23
NCI/ADR-RES = tested on: NCI/ADR-RES
PC-3 = tested on: PC-3
BT-549 = tested on: BT-549
CAKI-1 = tested on: CAKI-1
HCC 2998 = tested on: HCC 2998
SR = tested on: SR

Row | Compound | GI50 (SK-MEL-2) | GI50 (SF-268) | GI50 (HCT-116) | GI50 (SK-MEL-28) | GI50 (COLO 205) | GI50 (SK-OV-3) | GI50 (OVCAR-3) | GI50 (SN12C) | GI50 (SF-539) | GI50 (CCRF-CEM) | GI50 (SK-MEL-5) | GI50 (IGROV-1) | GI50 (HOP-62) | GI50 (NCI-H23) | GI50 (NCI/ADR-RES) | GI50 (PC-3) | GI50 (BT-549) | GI50 (CAKI-1) | GI50 (HCC 2998) | GI50 (SR)
1 | COC(=O)C1=C(O)C(C(=O)OC)[C@]2(O)[C@@H](C(=O)OC)[C@H]1[C@H](C)[C@@H](c1ccccc1)[C@@H]2C(=O)OC (stereo partly drawn) | 96.4 µM (inactive) | 70.8 µM (inactive) | 60.3 µM (inactive) | > 100 µM (inactive) | 77.3 µM (inactive) | > 100 µM (inactive) | 54 µM (inactive) | 66.4 µM (inactive) | > 100 µM (inactive) | 23.2 µM (inactive) | 36.2 µM (inactive) | 16.8 µM (inactive) | > 100 µM (inactive) | 44.4 µM (inactive) | 40.7 µM (inactive) | 61.5 µM (inactive) | 38.8 µM (inactive) | > 100 µM (inactive) |  | 
2 | CC(=O)C1=C(C)N2C(=NC3=C(CCc4ccccc43)C2c2ccc(Cl)cc2)S1 (stereo not drawn) | > 45 µM (inactive) | > 87.9 µM (inactive) | 5.85 µM (inactive) | > 100 µM (inactive) | 21.4 µM (inactive) | > 100 µM (inactive) | > 38.7 µM (inactive) | > 100 µM (inactive) | > 92.9 µM (inactive) | 8.41 µM (inactive) | 26.1 µM (inactive) | 12.3 µM (inactive) | > 100 µM (inactive) | 71.1 µM (inactive) | > 73.8 µM (inactive) | 10.2 µM (inactive) | > 100 µM (inactive) | > 100 µM (inactive) | 5.69 µM (inactive) | 
3 | N#CC(NCCO)=C1C(=O)c2ccccc2C1=O | > 100 µM (inactive) | > 100 µM (inactive) | > 100 µM (inactive) | > 100 µM (inactive) | > 100 µM (inactive) | > 100 µM (inactive) | > 100 µM (inactive) | > 100 µM (inactive) | > 100 µM (inactive) |  | > 100 µM (inactive) | > 100 µM (inactive) | > 100 µM (inactive) | > 100 µM (inactive) | > 100 µM (inactive) | > 100 µM (inactive) | > 100 µM (inactive) | > 100 µM (inactive) |  | > 100 µM (inactive)
4 | NS(=O)(=O)c1ccc(NS(=O)(=O)c2ccc(NC(=O)N(c3ccccc3)c3ccccc3)cc2)cc1 | 48.5 µM (inactive) | 64.1 µM (inactive) | 82.4 µM (inactive) | > 100 µM (inactive) | > 100 µM (inactive) |  | 19.1 µM (inactive) | > 100 µM (inactive) |  | 2.7 µM (inactive) | 68.2 µM (inactive) | 59 µM (inactive) | 52.8 µM (inactive) | > 100 µM (inactive) | > 100 µM (inactive) | 51.1 µM (inactive) | 87.1 µM (inactive) | 67 µM (inactive) |  | 
5 | Cc1nc(N(C(C)C)C(C)C)c(C(C)C)o1 |  | > 100 µM (inactive) | > 100 µM (inactive) | > 100 µM (inactive) | > 100 µM (inactive) | > 100 µM (inactive) | > 100 µM (inactive) | > 100 µM (inactive) | > 100 µM (inactive) | > 100 µM (inactive) | > 100 µM (inactive) | > 100 µM (inactive) | > 100 µM (inactive) | > 100 µM (inactive) | > 100 µM (inactive) | > 100 µM (inactive) | > 100 µM (inactive) | > 100 µM (inactive) | > 100 µM (inactive) | 
6 | Cc1cc(Nc2ccc(NS(C)(=O)=O)cc2)c2c(ccc3[nH]ccc32)n1 | 15.9 µM (inactive) | 7.24 µM (inactive) | 17.2 µM (inactive) | 17.7 µM (inactive) | 14.3 µM (inactive) |  | 13.1 µM (inactive) | 17.8 µM (inactive) |  | 7.87 µM (inactive) | 15.1 µM (inactive) | 28.6 µM (inactive) | 19.4 µM (inactive) | 20.7 µM (inactive) | > 100 µM (inactive) | 20.4 µM (inactive) | 21.9 µM (inactive) | 29.5 µM (inactive) |  | 
7 | O=c1c2cc(Br)ccc2oc2ccc(Br)cc12 | > 100 µM (inactive) | > 100 µM (inactive) | 82.2 µM (inactive) | > 100 µM (inactive) | > 100 µM (inactive) |  | 71.8 µM (inactive) | > 100 µM (inactive) | > 100 µM (inactive) | > 100 µM (inactive) | > 100 µM (inactive) | > 100 µM (inactive) |  | > 100 µM (inactive) | > 100 µM (inactive) | > 100 µM (inactive) | > 100 µM (inactive) | > 100 µM (inactive) | > 100 µM (inactive) | 
8 | CC(C)(C)OC(=O)n1c(Cl)c(C=O)c2ccccc21 | 30.1 µM (inactive) | 17.9 µM (inactive) |  | 39.9 µM (inactive) | 56.4 µM (inactive) | > 100 µM (inactive) | 19.4 µM (inactive) | 23.7 µM (inactive) | 30.1 µM (inactive) | 27.9 µM (inactive) | 43.5 µM (inactive) | 28.2 µM (inactive) | 20.6 µM (inactive) | 23.3 µM (inactive) | 30.7 µM (inactive) | 22 µM (inactive) | 21.3 µM (inactive) | 17.2 µM (inactive) |  | 31.2 µM (inactive)
9 | CC12C=CC(C)(C3C(=O)C4C(C(=O)C31)C1(C)C=CC4(C)[S+]1[O-])[S+]2[O-] (stereo not drawn) |  | > 100 µM (inactive) |  |  | 34.9 µM (inactive) | > 100 µM (inactive) | > 100 µM (inactive) |  | 25.4 µM (inactive) |  | 21.9 µM (inactive) | 83.9 µM (inactive) | > 100 µM (inactive) | > 100 µM (inactive) | 64.7 µM (inactive) | > 100 µM (inactive) | > 100 µM (inactive) | > 100 µM (inactive) | > 100 µM (inactive) | 
10 | CCOc1nc(N)nc(C)c1/N=N/c1ccc(Cl)cc1 | > 100 µM (inactive) | > 100 µM (inactive) | > 100 µM (inactive) | > 100 µM (inactive) | > 100 µM (inactive) | > 100 µM (inactive) | > 100 µM (inactive) | 14.1 µM (inactive) | 36.9 µM (inactive) | 41.3 µM (inactive) | 0.649 µM (active) | > 100 µM (inactive) | > 100 µM (inactive) | > 100 µM (inactive) | > 100 µM (inactive) | 82.8 µM (inactive) | 59 µM (inactive) | > 100 µM (inactive) |  | 1.86 µM (inactive)
11 | Brc1ccc(/N=N/N2CCCC2)cc1 | 57.1 µM (inactive) | 95.1 µM (inactive) | 58.6 µM (inactive) | > 100 µM (inactive) | > 100 µM (inactive) | > 100 µM (inactive) | 81.5 µM (inactive) | 59 µM (inactive) | > 100 µM (inactive) | 42 µM (inactive) | 27.1 µM (inactive) | 34.8 µM (inactive) | > 100 µM (inactive) | 45.2 µM (inactive) |  | 31.8 µM (inactive) | 44.6 µM (inactive) | 27.7 µM (inactive) | 40.6 µM (inactive) | 34.6 µM (inactive)
12 | O=C(Cl)C1=C(c2ccccc2)C1c1ccccc1 (stereo not drawn) | > 100 µM (inactive) | > 100 µM (inactive) | > 100 µM (inactive) | > 100 µM (inactive) | > 100 µM (inactive) | > 100 µM (inactive) | > 100 µM (inactive) | > 100 µM (inactive) | > 100 µM (inactive) | > 100 µM (inactive) | > 100 µM (inactive) | > 100 µM (inactive) | > 100 µM (inactive) | > 100 µM (inactive) |  | > 100 µM (inactive) | > 100 µM (inactive) | > 100 µM (inactive) | > 100 µM (inactive) | > 100 µM (inactive)
13 | CCCCCCCCCCCNC=O | 24.8 µM (inactive) | 49.1 µM (inactive) | 33.6 µM (inactive) | 68.5 µM (inactive) | 49.3 µM (inactive) | 75.5 µM (inactive) | 35.4 µM (inactive) | 63.4 µM (inactive) | > 100 µM (inactive) | 26.5 µM (inactive) | 36.9 µM (inactive) | 84.7 µM (inactive) | > 100 µM (inactive) | 44.5 µM (inactive) | 30.6 µM (inactive) | 23.9 µM (inactive) | 21.8 µM (inactive) | 33.3 µM (inactive) | 24.4 µM (inactive) | 
14 | CCCCN1CCC(O)(c2cc(C(=O)O)[nH]c2-c2cc(C)no2)C1=O (stereo not drawn) | > 100 µM (inactive) | > 100 µM (inactive) | > 100 µM (inactive) | > 100 µM (inactive) | > 100 µM (inactive) | > 100 µM (inactive) | > 100 µM (inactive) |  |  |  | > 100 µM (inactive) | > 100 µM (inactive) | > 100 µM (inactive) | > 100 µM (inactive) | > 100 µM (inactive) | > 100 µM (inactive) | > 100 µM (inactive) | > 100 µM (inactive) | > 100 µM (inactive) | 
15 | Cc1ccc(NC(=O)C(=O)C2C(=O)C3=C(CC2(C)C)NC2C=CC=CC2S3)c(C)c1 (stereo not drawn) | > 100 µM (inactive) | 36.8 µM (inactive) | > 100 µM (inactive) | > 100 µM (inactive) | > 100 µM (inactive) | > 100 µM (inactive) |  | > 100 µM (inactive) | 43.8 µM (inactive) | > 100 µM (inactive) | 85.1 µM (inactive) | 49.3 µM (inactive) |  | > 100 µM (inactive) | > 100 µM (inactive) | > 100 µM (inactive) | > 100 µM (inactive) | > 100 µM (inactive) | > 100 µM (inactive) | 
